The record followed here is publication PMC6862662, “In Vitro Evaluation and Docking Studies of 5-oxo-5H-furo[3,2-g]chromene-6-carbaldehyde Derivatives as Potential Anti-Alzheimer’s Agents” (International Journal of Molecular Sciences, 2019).

Data set [1] relates to breast cancer cell line MCF-7. The data set can be described thus: MTT cytotoxicity assay, MCF-7. The data set is classed as cell-based. Conditions: Homo sapiens, read-out: IC50 against MCF-7 cancer cell line. On the technique in general: Formazan colour is commonly taken as a measure of viable cells.
Description: (§2) Briefly, the cells were seeded in 96-well plate at a density of 20 × 10^3 cells per well and then incubated at 37 °C in 5% CO2 to allow cell attachment. […] An equal volume of medium was used as the control treatment. After treatment for 24 h, 10 μL MTT (5 mg/mL) was added to each well and the plate was further incubated for 4 h later. The supernatant was removed and 100 μL of DMSO was added to each well to dissolve the resulting formazan crystals. The absorbance was read at 570 nm using the Varioskan flash microplate spectrophotometer reader. The percentages of cell viability were used to determine the IC50 values.
Data set [2] has as its target T1, AChE (Homo sapiens, UniProt P22303).
T1 construct: purchased BL, purchased through BIOCOM Africa (Pty) Ltd. 768104
The data set is described as follows: biochemical. Conditions: for SI BChE/AChE: Selectivity index IC50 (BChE)/IC50 (AChE).

The target of data set [3] is T2, BChE (Homo sapiens, UniProt P06276).
T2 construct: purchased cloud-clone corp., purchased through BIOCOM Africa (Pty) Ltd. RPC348Hu0 2_100
T2 sequence (P06276 29-602): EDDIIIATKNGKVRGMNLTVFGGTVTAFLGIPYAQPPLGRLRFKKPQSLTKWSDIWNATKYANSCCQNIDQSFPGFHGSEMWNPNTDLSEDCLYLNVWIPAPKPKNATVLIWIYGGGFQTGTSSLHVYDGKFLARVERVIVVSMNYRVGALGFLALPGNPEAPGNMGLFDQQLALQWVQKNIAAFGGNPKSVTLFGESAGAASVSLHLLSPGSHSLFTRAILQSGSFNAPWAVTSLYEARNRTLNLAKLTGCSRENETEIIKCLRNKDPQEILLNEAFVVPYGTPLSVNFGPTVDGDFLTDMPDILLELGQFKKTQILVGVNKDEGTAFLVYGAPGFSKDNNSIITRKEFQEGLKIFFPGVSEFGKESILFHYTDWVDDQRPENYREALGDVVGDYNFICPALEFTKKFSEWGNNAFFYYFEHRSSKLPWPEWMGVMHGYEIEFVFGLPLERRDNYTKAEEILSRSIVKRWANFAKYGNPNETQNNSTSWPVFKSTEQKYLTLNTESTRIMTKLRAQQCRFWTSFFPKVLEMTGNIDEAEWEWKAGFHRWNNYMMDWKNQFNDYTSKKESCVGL
The data set can be described thus: biochemical. Conditions: for IC50: Ellman's method, triplicate; for SI AChE/BChE: Selectivity index IC50 (AChE)/IC50 (BChE). A general note: In Ellman's method for cholinesterases, released thiocholine reacts with DTNB.
Description: The mixtures were incubated for 15 min at RT. The reaction was initiated by adding of 10 µL of mixture solution of 5 mM 5,50-dithio-bis-nitrobenzoic acid (DTNB) in 50 mM tris buffer (pH 7.7) and 10 µL acetylthiocholine (ASCh; 5 mM) in 50 mM tris buffer, pH 7.7 into the wells containing the mixtures. The hydrolysis of ASCh was determined by monitoring the formation of the yellow 5-thio-2-nitrobenzoate anion resulting from reaction of DTNB with thiocholines (SCh).
The IC50 values were determined graphically from inhibition curves (inhibitor concentration and absorbance) using the graph pad prism.

In the next data set the target is T3, human recombinant BACE-1 (Homo sapiens, UniProt P56817).
T3 construct: purchased Pan Vera; host or cells: baculovirus-expressed
T3 sequence (P56817 46-501): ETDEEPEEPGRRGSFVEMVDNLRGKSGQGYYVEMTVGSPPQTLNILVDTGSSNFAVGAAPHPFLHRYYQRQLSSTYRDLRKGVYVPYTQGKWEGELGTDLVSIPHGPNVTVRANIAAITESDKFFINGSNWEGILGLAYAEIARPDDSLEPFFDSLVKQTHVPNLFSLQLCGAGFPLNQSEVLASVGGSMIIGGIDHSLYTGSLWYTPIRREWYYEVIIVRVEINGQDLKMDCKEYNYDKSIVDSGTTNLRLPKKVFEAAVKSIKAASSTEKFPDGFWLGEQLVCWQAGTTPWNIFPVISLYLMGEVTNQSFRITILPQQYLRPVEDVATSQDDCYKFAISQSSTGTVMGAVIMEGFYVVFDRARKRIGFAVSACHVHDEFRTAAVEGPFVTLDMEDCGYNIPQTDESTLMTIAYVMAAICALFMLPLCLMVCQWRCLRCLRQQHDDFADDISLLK
The data set can be described thus: β-secretase FRET inhibitory assay. The class given is biochemical. Conditions: triplicate.

A short description of data set [4]: DPPH radical scavenging activity assay. Conditions: triplicate, preliminary. The procedure:
DPPH radical scavenging activity of compounds 2b, 2f, 3b, 3d and 3f was evaluated following the literature method. Ascorbic acid (Sigma Aldrich, Saint Louis, Missouri, USA) was used as a positive control. The test compounds and controls at various concentrations ranging from (0 µM to 40 µM) in DMSO were mixed with a solution of DPPH (0.20 mM) in methanol. The mixtures were incubated in the dark for 45 min and the absorbances were recorded at 512 nm using Varioskan flash microplate spectrophotometer reader. All tests and analyses were run in triplicate and averaged. The inhibition was calculated in terms of percentage using the formula below:(5) DPPH radical scavenged (%)=AbC−AbS/AbC×100, where AbC is absorbance of control and AbS the absorbance of the test sample.
For orientation: The DPPH test is a chemical assay of radical scavenging.

The target of data set [5] is T1, AChE. The data set is described as follows: Kinetic studies against AChE (Lineweaver–Burk and Dixon plots). The class given is biochemical. Conditions: for Ki: Dixon plots; for mode of inhibition against AChE: Lineweaver–Burk and Dixon plots. The protocol:
(§1) Compounds 2f, 2b, 2f, 3b, 3d and 3f were selected for the kinetic studies with substrate concentrations 0.1, 0.5, 2. 5 and 5 µM for ChEs following procedures described in our previous investigation. The Lineweaver–Burk plots (plots of the inverse of velocity (1/v) against the inverse of the substrate concentration (1/[S])) were used to ascertain the mode of inhibition of these compounds.

In data set [6] the target is T2, BChE. The data set can be described thus: Kinetic studies against BChE (Lineweaver–Burk and Dixon plots). The data set is classed as biochemical. Conditions: for Ki: Dixon plots; for mode of inhibition against BChE: Lineweaver–Burk and Dixon plots. The protocol: as §1
Data set [7] deals with lipoxygenase-15 (Soybean LOX-15). The class given is biochemical. Conditions: ratio not defined in print; matches IC50 LOX-15/LOX-5.
Description: Stock solutions (200 µM) of tested samples were prepared in DMSO. The stock solutions were further diluted with 50 mM Tris buffer of pH 7.7 to obtain concentrations of 0.01, 0.1, 1, 10 and 100 µM. The cells of a 96-well plate where distributed as follows: two wells taken as blanks (100 µL 50 mM Tris buffer pH 7.7), two wells taken as positive controls (90 µL of 15-LO Standard and 10 µL of DMSO) and two wells as 100% initial activity wells (90 µL lipoxygenase enzyme solution and 10 µL tris buffer). […] The 96-well plate was then incubated for 5 min at room temperature. The reaction was initiated by the addition of 10 µL of the substrate (arachidonic acid) to each well containing the mixtures. After shaking the 96-well plate on a shaker for 5 min, 100 µL of the chromogen (solution of equal volume developing reagent 1 and 2) was added to each well to stop enzyme catalysis and develop the reaction. The plate was again shaken for 5 min and the absorbance read at 490 nm in a Varioskan flash microplate spectrophotometer reader. The inhibitory concentration was expressed as a percentage using the formula below. […]
ASample is the absorbance of the reaction mixture of the test sample, ABlank sample is the absorbance of the reaction mixture containing all reagents except enzyme and AInitial activity is the absorbance of 100% initial activity.
Data set [8] concerns the target T4, human lipoxygenase-5 (LOX-5) (Homo sapiens, UniProt P09917).
T4 construct: purchased BioVision K980
T4 sequence (P09917 1-674): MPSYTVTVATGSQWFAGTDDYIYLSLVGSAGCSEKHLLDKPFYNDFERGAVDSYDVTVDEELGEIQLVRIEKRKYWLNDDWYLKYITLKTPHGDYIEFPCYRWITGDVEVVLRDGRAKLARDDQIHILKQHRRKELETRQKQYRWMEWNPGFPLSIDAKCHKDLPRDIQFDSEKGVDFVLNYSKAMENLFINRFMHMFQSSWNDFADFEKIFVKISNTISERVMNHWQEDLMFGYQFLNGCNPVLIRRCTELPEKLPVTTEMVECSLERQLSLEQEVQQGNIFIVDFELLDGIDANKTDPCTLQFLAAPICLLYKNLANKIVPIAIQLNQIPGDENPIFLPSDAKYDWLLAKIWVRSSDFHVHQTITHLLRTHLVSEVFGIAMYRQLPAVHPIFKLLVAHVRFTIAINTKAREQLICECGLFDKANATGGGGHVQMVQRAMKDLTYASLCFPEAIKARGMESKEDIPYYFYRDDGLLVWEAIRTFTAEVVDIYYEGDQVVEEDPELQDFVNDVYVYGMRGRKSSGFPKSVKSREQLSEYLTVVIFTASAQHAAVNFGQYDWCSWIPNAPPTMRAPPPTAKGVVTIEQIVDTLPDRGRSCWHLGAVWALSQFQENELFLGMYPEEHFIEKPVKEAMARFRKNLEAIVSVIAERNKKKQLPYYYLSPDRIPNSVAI
The data set is described as follows: Human LOX-5 inhibitory assay. Conditions: human LOX-5, duplicate. The class given is biochemical.
Description: The reagents were prepared according to the Lipoxygenase inhibitor screening kit (Item No. K980; BioVision, Milpitas Blvd, Milpitas, CA, USA) standard protocol. […] The cells of a 96-well plate where distributed as follows: two wells were taken as blanks (100 µL of assay buffer), two wells enzyme controls (90 µL of 15-LO Standard and 10 µL of tris buffer), two wells as 100% initial activity wells (90 µL and 10 µL DMSO) and three wells as enzyme control (40 µL). […] Forty µL of the reaction mixture (prepared by mixing thoroughly 36 µL of LOX assay buffer, 2 µL of LOX probe and 2 µL of 5-LOX enzyme) were added to each well and incubated for 10 min. at RT. The DMSO concentration in each reaction well was 1% to prevent enzyme structural deformation and therefore, reduced activity. […] The percentage inhibition (%) was calculated using the equation below. (4) % Inhibition=Control−Test/Control×100.

The next data set deals with T5, β-secretase (BACE-1) (Homo sapiens, UniProt P56817).
T5 construct: purchased Pan Vera; host or cells: baculovirus-expressed
T5 sequence (P56817 46-501): as the sequence (P56817 46-501) above
The data set is described as follows: Kinetic studies against β-secretase (Lineweaver–Burk and Dixon plots). The data set is classed as biochemical. The protocol: Compound 2f was selected for the kinetic studies with substrate concentrations 150, 300 and 450 nM for β-secretase following procedure described in our previous investigation. The Lineweaver–Burk plot (plot of the inverse of velocity (1/v) against the inverse of the substrate concentration (1/[S])) was used to ascertain the mode of inhibition of this compound.

Another data set deals with Hek293-T cells. The data set is described as follows: MTT cytotoxicity assay, Hek293-T. The data set is classed as cell-based. Conditions: 24 h, till 50 μM.

Structures can show the parent of a compound that is named as a salt. Where two headings read alike, the source gives them in different places.

T1 sequence (P22303 32-614): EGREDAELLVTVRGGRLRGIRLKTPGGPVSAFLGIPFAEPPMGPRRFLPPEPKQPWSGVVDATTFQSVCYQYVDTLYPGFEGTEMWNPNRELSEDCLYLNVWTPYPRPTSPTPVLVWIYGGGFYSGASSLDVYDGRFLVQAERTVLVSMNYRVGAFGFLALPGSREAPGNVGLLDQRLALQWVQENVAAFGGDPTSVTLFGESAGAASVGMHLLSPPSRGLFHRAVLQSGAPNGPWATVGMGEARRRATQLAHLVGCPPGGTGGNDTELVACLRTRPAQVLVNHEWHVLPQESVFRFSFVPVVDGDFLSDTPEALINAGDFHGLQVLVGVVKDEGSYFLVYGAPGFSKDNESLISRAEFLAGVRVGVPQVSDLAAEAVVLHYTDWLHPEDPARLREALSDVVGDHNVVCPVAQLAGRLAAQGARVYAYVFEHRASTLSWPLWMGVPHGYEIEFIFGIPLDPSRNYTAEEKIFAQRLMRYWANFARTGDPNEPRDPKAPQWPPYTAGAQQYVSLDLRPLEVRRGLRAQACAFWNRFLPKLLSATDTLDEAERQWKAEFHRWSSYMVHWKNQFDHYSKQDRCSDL
Description for Hek293-T cells: as §2

As usually defined, the IC50 is the concentration needed to halve the response being measured. Take `COc1cccc2c1C(=O)c1c(O)c3c(c(O)c1C2=O)C[C@@](O)(C(=O)CO)C[C@@H]3O[C@H]1C[C@H](N)[C@H](O)[C@H](C)O1` [doxorubicin, doxorubicin hydrochloride, reference compound]: in [1] (MCF7, 24 h), the IC50 worked out at 1.59 ± 0.01 µM.

Usually Ki stands for the dissociation constant of the complex between target and ligand, obtained from inhibition or displacement. A low value points to a stronger hold on the target. Consider `O=c1c(C=NNc2ccc(C(F)(F)F)cc2)coc2cc3oc(-c4cccc(Cl)c4)cc3cc12` [Compound 3d, 2-(3-Chlorophenyl)-6-[(4-trifluoromethylphenyl)hydrazonomethyl]furo[3,2-g]chromen-5-one], for which the concentration for half-maximal inhibition (IC50) is 18.3 ± 0.04 µM at AChE [2] (Ellman's method, triplicate, read-out: IC50 (µM) AChE); 7.2 ± 0.03 µM against BChE [3]; 32.8 ± 0.02 µM on human recombinant BACE-1; 20.9 ± 0.03 µM in data set [4]. In addition, at AChE [2], the “SI BChE/AChE” value is 0.39. Further, the “SI AChE/BChE” value on BChE [3] stood at 2.56. In addition, the results for the Ki on AChE [5] and on BChE [6] were 2.5 ± 0.01 µM and 0.85 ± 0.01 µM, respectively. Moreover, the “mode of inhibition against AChE” value at AChE [5] is given as “non-competitive”. Further, the “mode of inhibition against BChE” value on BChE [6] is “non-competitive”.

Consider `COc1ccc(-c2cc3cc4c(=O)c(C=O)coc4cc3o2)cc1` [Compound 2f, 2-(4-Methoxyphenyl)-5-oxo-5H-furo[3,2-g]chromene-6-carbaldehyde], for which the IC50 turned out to be 9.4 ± 0.01 µM on AChE [2]; 5.1 ± 0.02 µM at BChE [3]; 15.4 ± 0.02 µM on human recombinant BACE-1; 15.3 ± 0.01 µM in data set [8]; 18.1 ± 0.03 µM in [4]; 8.65 ± 0.03 µM in data set [1] (MCF7, MTT assay, 24 h, preliminary). Moreover, the “SI BChE/AChE” value on AChE [2] amounted to 0.54. Moreover, the “SI AChE/BChE” value at BChE [3] is reported as 1.85. Further, the “SI (LOX-15 vs LOX-5)” value in [7] turned out to be 0.63. Further, the Ki on AChE [5] turned out to be 1.34 ± 0.02 µM; on BChE [6], 3.9 ± 0.01 µM; on β-secretase (BACE-1) (Dixon plot) it was 1.49 ± 0.01 µM. The “mode of inhibition against AChE” value at AChE [5] was “competitive”. For the same compound, the “Vmax against AChE” value on AChE [5] (Lineweaver–Burk plots, increasing inhibitor concentration) turned out to be 0.03 ± 0.018. Besides, the “mode of inhibition against BChE” value on BChE [6] is “non-competitive”. The “mode of inhibition against β-secretase” value at β-secretase (BACE-1) (Lineweaver–Burk and Dixon plots) was “mixed mode of inhibition”. Besides, in the data set on Hek293-T cells, the “toxicity in Hek293-T cells” value is on record as “did not show any major toxicity”.
